{"source": "patent US20100062070A1", "about": "“Pulverzed crystals of olmesartan medoxomil” (DAIICHI SANKYO COMPANY, LIMITED, priority 2007, published 2010)", "key": {"[1]": {"experiment": "Measurement of dissolution ratio of pulverized olmesartan medoxomil (JP Dissolution Test Method 2, Paddle Method)", "type": "physicochemical", "conditions": "calculated from regression equation in FIG. 1, 30 minutes, JP-2, 200 paddle rpm", "protocol": "According to the Method 2 of the Dissolution Test (Paddle Method) described in the 14th Revised Edition of the Japanese Pharmacopoeia, at 200 paddle revolutions per-minute using 900 mL of Japanese Pharmacopoeia Solution 2 (JP-2) for the test solution, 20 mg of milled olmesartan medoxomil prepared per 1 Bessel was added. The test solution was sampled at 30 minutes after the start of the testing, the sampled test solution was filtered through a membrane filter having a pore diameter of 0.45 μm, and the dissolution ratio of olmesartan medoximil was measured by spectrophotometer. Calculation of the dissolution ratio was conducted based on “absorbance of filtrate at 257 nm-absorbance of filtrate at 338 nm”."}, "[2]": {"experiment": "Particle diameter measurement of milled product (HELOS&RODOS dry powder particle size analyzer)", "type": "physicochemical", "conditions": "evaluated by using FIG. 3", "protocol": "The particle diameter of the milled olmesartan medoxomil obtained in Example (1) was measured under the following conditions. Apparatus: HELOS&RODOS dry powder particle size analyzer Lens: R3 Dispersive pressure: 1.5 bar Trigger condition: 2s-1000ms-k15-0.5% Feeder: VIBRI (feeding: 70%)"}}}
{"molecule": "CCCc1nc(C(C)(C)O)c(C(=O)OCc2oc(=O)oc2C)n1Cc1ccc(-c2ccccc2-c2nnn[nH]2)cc1", "note": "[olmesartan medoxomil, (5-methyl-2-oxo-1,3-dioxolen-4-yl)methyl 4-(1-hydroxy-1-methylethyl)-2-propyl-1-[2′-(1H-tetrazol-5-yl)biphenyl-4-ylmethyl]imidazole-5-carboxylate]", "values": [{"measurement": "dissolution ratio of the drug substance", "setting": "[1]; desired dissolution ratio of the medicament (20 mg tablet) set to 60%", "value": 42.93, "unit": "%"}, {"measurement": "dissolution ratio of the drug substance", "setting": "[1]; desired dissolution ratio of the medicament (20 mg tablet) set to 65%", "value": 50.56, "unit": "%"}, {"measurement": "dissolution ratio of the drug substance", "setting": "[1]; desired dissolution ratio of the medicament (20 mg tablet) set to 70%", "value": 58.18, "unit": "%"}, {"measurement": "particle diameter at 99% cumulative volume", "setting": "[2]; required for a medicament which elutes 60% or more", "value": "≤ 156", "unit": "μm"}, {"measurement": "particle diameter at 99% cumulative volume", "setting": "[2]; required for a medicament which elutes 65% or more", "value": "≤ 137", "unit": "μm"}, {"measurement": "particle diameter at 99% cumulative volume", "setting": "[2]; required for a medicament which elutes 70% or more", "value": "≤ 119", "unit": "μm"}]}
